Experimental data taken from patent US8343957B2, “Therapeutic pyrazoloquinoline urea derivatives” (Dart Neuroscience (Cayman) Ltd., priority 2007, dated 2013).

These compounds were tested against GABAA central benzodiazepine receptor (assay: Benzodiazepine Binding Assay). Details: read-out: BZ binding Assay IC50; 1 nM (3H)-flunitrazepam, rat whole brain (except cerebellum) membranes, 60 minutes at 25° C.

| Compound | IC50 [µM] |
| --- | --- |
| 5-(4-Isopropylpiperazine-1-carbonyl)-7,8-difluoro-4-methyl-2-phenyl-2,5-dihydro-pyrazolo-(4,3-c)quinolin-3-one [Compd 48] | > 1 |
| O=C(N1CCOCC1)n1cc2c(=O)n(-c3ccccc3)nc-2c2ccccc21 [Compd 13, 5-(Morpholine-4-carbonyl)-2-phenyl-2,5-dihydro-pyrazolo-(4,3-c)quinolin-3-one] | > 1 |
| O=C(N1CCC(O)CC1)n1cc2c(=O)n(-c3ccccc3)nc-2c2ccccc21 [Compd 30, 5-(4-Hydroxypiperidine-1-carbonyl)-2-phenyl-2,5-dihydro-pyrazolo-(4,3-c)quinolin-3-one] | > 1 |
| CN(C)C(=O)n1cc2c(=O)n(-c3ccccc3)nc-2c2ccccc21 [Compd 32, 5-(Dimethylaminocarbonyl)-2-phenyl-2,5-dihydro-pyrazolo-(4,3-c)quinolin-3-one] | < 1 |
| CN(C)C1CCN(C(=O)n2cc3c(=O)n(-c4ccccc4)nc-3c3ccccc32)CC1 [Compd 33, 5-(4-N,N-Dimethylaminopiperidine-1-carbonyl)-2-phenyl-2,5-dihydro-pyrazolo-(4,3-c)quinolin-3-one] | < 1 |
| CC(C)N1CCN(C(=O)n2cc3c(=O)n(-c4ccccc4)nc-3c3cc(N4CCOCC4)ccc32)CC1 [Compd 34, 5-(4-Isopropylpiperazine-1-carbonyl)-8-morpholino-2-phenyl-2,5-dihydro-pyrazolo-(4,3-c)quinolin-3-one] | < 1 |
| CC(C)N1CCN(C(=O)n2cc3c(=O)n(-c4ccc(Cl)cc4)nc-3c3cc(F)ccc32)CC1 [Compd 35, 5-(4-Isopropylpiperazine-1-carbonyl)-8-fluoro-2-(4-chlorophenyl)-2,5-dihydro-pyrazolo-(4,3-c)quinolin-3-one] | < 1 |
| CN1CCN(C(=O)n2cc3c(=O)n(-c4ccccc4)nc-3c3ccccc32)CC1 [Compd 36, 5-(4-Methylpiperazine-1-carbonyl)-2-phenyl-2,5-dihydro-pyrazolo-(4,3-c)quinolin-3-one] | < 1 |
| O=C(N1CCN(c2ccccc2)CC1)n1cc2c(=O)n(-c3ccccc3)nc-2c2cc(F)ccc21 [Compd 37, 5-(4-Phenylpiperazine-1-carbonyl)-8-fluoro-2-phenyl-2,5-dihydro-pyrazolo-(4,3-c)quinolin-3-one] | < 1 |
| COc1ccc(-n2nc3c4cc(F)c(F)cc4n(C(=O)N4CCN(C(C)C)CC4)cc-3c2=O)cc1 [Compd 38, 5-(4-Isopropylpiperazine-1-carbonyl)-7,8-difluoro-2-(4′-methoxyphenyl)-2,5-dihydro-pyrazolo-(4,3-c)quinolin-3-one] | < 1 |
| COc1ccc(-n2nc3c4cc(F)ccc4n(C(=O)N4CCN(C(C)C)CC4)cc-3c2=O)cc1 [Compd 39, 5-(4-Isopropylpiperazine-1-carbonyl)-8-fluoro-2-(4′-methoxyphenyl)-2,5-dihydro-pyrazolo-(4,3-c)quinolin-3-one] | < 1 |
| CCCN1CCN(C(=O)n2cc3c(=O)n(-c4ccccc4)nc-3c3ccccc32)CC1 [Compd 40, 5-(4-Propylpiperazine-1-carbonyl)-2-phenyl-2,5-dihydro-pyrazolo-(4,3-c) quinolin-3-one] | < 1 |
| Cc1cc2c(cc1F)c1nn(-c3ccccc3)c(=O)c-1cn2C(=O)N1CCN(C)CC1 [Compd 41, 8-Fluoro-7-methyl-5-(4-methylpiperazine-1-carbonyl)-2-phenyl-2,5-dihydro-pyrazolo-(4,3-c)quinolin-3-one] | < 1 |
| COc1ccc2c(c1)c1nn(-c3ccccc3)c(=O)c-1cn2C(=O)N1CCN(C)CC1 [Compd 42, 8-Methoxy-5-(4-methylpiperazine-1-carbonyl)-2-phenyl-2,5-dihydro-pyrazolo-(4,3-c)quinolin-3-one] | < 1 |
| Cc1c2c(=O)n(-c3ccccc3)nc-2c2ccccc2n1C(=O)N1CCN(C(C)C)CC1 [Compd 43, 5-(4-Isopropylpiperazine-1-carbonyl)-4-methyl-2-phenyl-2,5-dihydro-pyrazolo[4,3-c]quinolin-3-one] | < 1 |

The next lines start with the values.

| IC50 [µM] | Compound |
| --- | --- |
| < 1 | CC1CCN(C(=O)n2cc3c(=O)n(-c4ccccc4)nc-3c3ccccc32)CC1 [Compd 5, 5-(4-Methylpiperidine-1-carbonyl)-2-phenyl-2,5-dihydro-pyrazolo-(4,3-c)quinolin-3-one] |
| < 1 | CC1CN(C(=O)n2cc3c(=O)n(-c4ccccc4)nc-3c3ccccc32)CC(C)O1 (centres unmarked) [Compd 6] |
| < 1 | COCCN1CCN(C(=O)n2cc3c(=O)n(-c4ccccc4)nc-3c3ccccc32)CC1 [Compd 7, 5-(4-(2-Methoxyethyl)-piperazine-1-carbonyl)-2-phenyl-2,5-dihydro-pyrazolo-(4,3-c)quinolin-3-one] |
| < 1 | CC(C)N1CCN(C(=O)n2cc3c(=O)n(-c4ccccc4)nc-3c3ccccc32)CC1 [Compd 8, 5-(4-Isopropylpiperazine-1-carbonyl)-2-phenyl-2,5-dihydro-pyrazolo-(4,3-c)quinolin-3-one] |
| < 1 | CC1CCCN1C(=O)n1cc2c(=O)n(-c3ccccc3)nc-2c2ccccc21 (centres unmarked) [Compd 9, 5-(2-Methylpyrrolidine-1-carbonyl)-2-phenyl-2,5-dihydro-pyrazolo-(4,3-c) quinolin-3-one] |
| < 1 | O=C(N1CCN(c2ccccc2)CC1)n1cc2c(=O)n(-c3ccccc3)nc-2c2ccccc21 [Compd 10, 5-(4-Phenylpiperazine-1-carbonyl)-2-phenyl-2,5-dihydro-pyrazolo-(4,3-c) quinolin-3-one] |
| < 1 | CC1CN(C(=O)n2cc3c(=O)n(-c4ccccc4)nc-3c3ccccc32)CC(C)N1 (centres unmarked) [Compd 11, 5-(3,5-Dimethylpiperazine-1-carbonyl)-2-phenyl-2,5-dihydro-pyrazolo-(4,3-c)quinolin-3-one] |
| < 1 | O=C(N1CCCCC1)n1cc2c(=O)n(-c3ccccc3)nc-2c2ccccc21 [Compd 12, 5-(Piperidine-1-carbonyl)-2-phenyl-2,5-dihydro-pyrazolo-(4,3-c)quinolin-3-one] |
| < 1 | C=CCN1CCN(C(=O)n2cc3c(=O)n(-c4ccccc4)nc-3c3ccccc32)CC1 [Compd 14, 5-(4-Allylpiperazine-1-carbonyl)-2-phenyl-2,5-dihydro-pyrazolo-(4,3-c) quinolin-3-one] |
| < 1 | CC(C)N1CCN(C(=O)n2cc3c(=O)n(-c4ccccc4F)nc-3c3ccccc32)CC1 [Compd 15, 5-(4-Isopropylpiperazine-1-carbonyl)-2-(2′-fluorophenyl)-2,5-dihydro-pyrazolo-(4,3-c)quinolin-3-one] |
| < 1 | CN1CCN(C(=O)n2cc3c(=O)n(-c4ccccc4F)nc-3c3ccccc32)CC1 [Compd 16, 5-(4-Methylpiperazine-1-carbonyl)-2-(2′-fluorophenyl)-2,5-dihydro-pyrazolo-(4,3-c)quinolin-3-one] |
| < 1 | COc1ccc(-n2nc3c4ccccc4n(C(=O)N4CCN(C(C)C)CC4)cc-3c2=O)cc1 [Compd 17, 5-(4-Isopropylpiperazine-1-carbonyl)-2-(4′-methoxyphenyl)-2,5-dihydro-pyrazolo-(4,3-c)quinolin-3-one] |
| < 1 | COc1ccc(-n2nc3c4ccccc4n(C(=O)N4CCN(C)CC4)cc-3c2=O)cc1 [Compd 18, 5-(4-Methylpiperazine-1-carbonyl)-2-(4′-methoxyphenyl)-2,5-dihydro-pyrazolo-(4,3-c)quinolin-3-one] |
| < 1 | CC(C)N1CCN(C(=O)n2cc3c(=O)n(-c4ccccc4)nc-3c3cc(F)ccc32)CC1 [Compd 19, 5-(4-Isopropylpiperazine-1-carbonyl)-8-fluoro-2-phenyl-2,5-dihydro-pyrazolo-(4,3-c)quinolin-3-one] |
| < 1 | CN1CCN(C(=O)n2cc3c(=O)n(-c4ccccc4)nc-3c3cc(F)ccc32)CC1 [Compd 20, 5-(4-Methylpiperazine-1-carbonyl)-8-fluoro-2-phenyl-2,5-dihydro-pyrazolo-(4,3-c)quinolin-3-one] |
| < 1 | CC(C)N1CCN(C(=O)n2cc3c(=O)n(-c4ccccc4)nc-3c3cc(F)c(F)cc32)CC1 [Compd 21, 5-(4-Isopropylpiperazine-1-carbonyl)-7,8-difluoro-2-phenyl-2,5-dihydro-pyrazolo-(4,3-c)quinolin-3-one] |
| < 1 | CN1CCN(C(=O)n2cc3c(=O)n(-c4ccccc4)nc-3c3cc(F)c(F)cc32)CC1 [Compd 22, 5-(4-Methylpiperazine-1-carbonyl)-7,8-difluoro-2-phenyl-2,5-dihydro-pyrazolo-(4,3-c)quinolin-3-one] |
| < 1 | COc1ccc2c(c1)c1nn(-c3ccccc3)c(=O)c-1cn2C(=O)N1CCN(C(C)C)CC1 [Compd 23, 5-(4-Isopropylpiperazine-1-carbonyl)-8-methoxy-2-phenyl-2,5-dihydro-pyrazolo-(4,3-c)quinolin-3-one] |
| < 1 | Cc1ccc2c(c1)c1nn(-c3ccccc3)c(=O)c-1cn2C(=O)N1CCN(C(C)C)CC1 [Compd 25, 5-(4-Isopropylpiperazine-1-carbonyl)-8-methyl-2-phenyl-2,5-dihydro-pyrazolo-(4,3-c)quinolin-3-one] |
| < 1 | Cc1ccc2c(c1)c1nn(-c3ccccc3)c(=O)c-1cn2C(=O)N1CCN(C)CC1 [Compd 26, 5-(4-Methylpiperazine-1-carbonyl)-8-methyl-2-phenyl-2,5-dihydro-pyrazolo-(4,3-c)quinolin-3-one] |
| < 1 | Cc1ccc2c(c1)c1nn(-c3ccccc3)c(=O)c-1cn2C(=O)N1CCC(O)CC1 [Compd 27, 5-(4-Hydroxypiperidine-1-carbonyl)-8-methyl-2-phenyl-2,5-dihydro-pyrazolo-(4,3-c)quinolin-3-one] |
| < 1 | Cc1ccc2c(c1)c1nn(-c3ccccc3)c(=O)c-1cn2C(=O)N1CCC(F)CC1 [Compd 28, 5-(4-Fluoropiperidine-1-carbonyl)-8-methyl-2-phenyl-2,5-dihydro-pyrazolo-(4,3-c)quinolin-3-one] |
| < 1 | Cc1ccc2c(c1)c1nn(-c3ccccc3)c(=O)c-1cn2C(=O)N1CCCN(C)CC1 [Compd 29, 5-(4-Methylperhydro[1,4]-diazepine-1-carbonyl)-8-methyl-2-phenyl-2,5-dihydro-pyrazolo-(4,3-c)quinolin-3-one] |
